Test results published in ChEMBL document CHEMBL5325497, “Facilitated Drug Repurposing with Artemisinin-Derived PROTACs: Unveiling PCLAF as a Therapeutic Target” (J Med Chem, 2023).
pIC50, pKd: −log10 of the molar value. The source made the active and inactive calls. The calls are words filed in the database; no cut-off is given here.

Assays:
RS4-11 [1] = assay: Antiproliferative activity against human RS4-11 cells assessed as cell growth inhibition incubated for 48 hrs by CCK8 colorimetric assay; assay type: functional, cell-based; details: RS4-11, 48 h
RPMI-8226 = assay: Antiproliferative activity against human RPMI-8226 cells assessed as cell growth inhibition incubated for 48 hrs by CCK8 colorimetric assay; assay type: functional, cell-based; details: RPMI-8226, 48 h
PCNA-associated factor = molecular target: T1, PCNA-associated factor (Homo sapiens, UniProt Q15004); assay: Binding affinity to PCLAF (unknown origin) assessed as equilibrium dissociation constant by SPR assay
T1 sequence (Q15004 whole entry): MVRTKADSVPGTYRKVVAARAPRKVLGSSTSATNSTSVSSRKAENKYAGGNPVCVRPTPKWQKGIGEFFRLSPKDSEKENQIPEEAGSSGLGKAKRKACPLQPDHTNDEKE

U-266 = assay: Antiproliferative activity against human U266B1 cells assessed as cell growth inhibition incubated for 48 hrs by CCK8 colorimetric assay; assay type: functional, cell-based; details: U-266, 48 h
RS4-11 [2] = assay: Induction of apoptosis in human RS4-11 cells assessed as increase in late apoptosis at 10 to 200 nM incubated for 48 hrs Annexin V-FITC/PI staining based flow cytometry analysis; assay type: functional, cell-based; details: dose 10-200 nM
[3] = Toxicity in NOD/SCID mouse xenografted with human RS4-11 cells assessed as adverse effect at 1 mg/kg,iv qd administration for 5 consecutive days; assay type: organism-based; details: in vivo
[4] = Toxicity in NOD/SCID mouse xenografted with human RS4-11 cells assessed as change in body weight at 5 mg/kg,iv qd administration for 5 consecutive days; assay type: organism-based; details: in vivo
[5] = molecular target: T2, Protein cereblon/PCNA-associated factor (Homo sapiens, UniProt Q15004+Q96SW2); assay: PROTAC activity at CRBN/PCLAF in human RS4-11 cells assessed as degradation of PCLAF protein at 100 nM incubated for 12 hrs by Western blotting analysis; assay type: cell-based
Target sequence in this assay (Q96SW2 whole entry, looked up, one chain of several): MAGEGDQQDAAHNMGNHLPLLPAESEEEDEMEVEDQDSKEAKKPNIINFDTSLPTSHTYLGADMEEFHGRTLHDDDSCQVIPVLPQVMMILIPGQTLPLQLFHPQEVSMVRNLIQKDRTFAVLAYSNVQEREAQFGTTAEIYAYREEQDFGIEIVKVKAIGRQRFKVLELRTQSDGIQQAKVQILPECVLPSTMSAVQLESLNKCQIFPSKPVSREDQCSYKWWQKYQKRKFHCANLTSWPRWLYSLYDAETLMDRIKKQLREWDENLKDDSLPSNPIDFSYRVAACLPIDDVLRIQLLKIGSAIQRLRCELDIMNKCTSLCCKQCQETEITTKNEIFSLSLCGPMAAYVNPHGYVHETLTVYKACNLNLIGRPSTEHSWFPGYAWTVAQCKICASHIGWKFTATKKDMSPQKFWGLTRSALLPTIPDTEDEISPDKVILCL

[6] = molecular target: T2, Protein cereblon/PCNA-associated factor; assay: PROTAC activity at CRBN/PCLAF in human RS4-11 cells assessed as degradation of PCLAF protein at 100 nM incubated for 12 hrs in presence of pomalidomide by Western blotting analysis; assay type: cell-based
Target sequence in this assay (Q96SW2 whole entry, looked up, one chain of several): as above

[7] = Toxicity in NOD/SCID mouse xenografted with human RS4-11 cells assessed as pathological change in kidney at 25 mg/kg,iv qd administration for 5 consecutive days by hematoxylin and eosin staining based microscopic analysis; assay type: organism-based; details: in vivo
RS4-11 [8] = assay: Induction of apoptosis in human RS4-11 cells assessed as increase in early apoptosis at 10 to 200 nM incubated for 48 hrs Annexin V-FITC/PI staining based flow cytometry analysis; assay type: functional, cell-based; details: dose 10-200 nM
[9] = molecular target: T3, PCNA-associated factor (Homo sapiens) (UniProt Q15004); assay: Binding affinity to PCLAF in human RS4-11 cells assessed as thermal stability at 100 uM incubated for 60 mins by CETSA assay; assay type: cell-based
T3 sequence (whole entry): T1 sequence (Q15004 whole entry)

[10] = Toxicity in NOD/SCID mouse xenografted with human RS4-11 cells assessed as change in body weight at 25 mg/kg,iv qd administration for 5 consecutive days; assay type: organism-based; details: in vivo
[11] = molecular target: T2, Protein cereblon/PCNA-associated factor; assay: PROTAC activity at CRBN/PCLAF in human RS4-11 cells assessed as downregulation of Rb phosphorylation at 10 to 100 nM by Western blotting analysis; assay type: cell-based; details: dose 10-100 nM
Target sequence in this assay (Q96SW2 whole entry, looked up, one chain of several): as above

[12] = Oral bioavailability in Sprague-Dawley rat at 50 mg/kg measured upto 24 hrs by LC-MS/MS analysis; assay type: ADME, organism-based; details: in vivo
[13] = molecular target: T2, Protein cereblon/PCNA-associated factor; assay: PROTAC activity at CRBN/PCLAF in human RS4-11 cells assessed as degradation of PCLAF protein at 100 nM incubated for 12 hrs in presence of MG132 by Western blotting analysis; assay type: cell-based
Target sequence in this assay (Q96SW2 whole entry, looked up, one chain of several): as above

[14] = Toxicity in NOD/SCID mouse xenografted with human RS4-11 cells assessed as pathological change in heart at 25 mg/kg,iv qd administration for 5 consecutive days by hematoxylin and eosin staining based microscopic analysis; assay type: organism-based; details: in vivo
[15] = molecular target: T2, Protein cereblon/PCNA-associated factor; assay: PROTAC activity at CRBN/PCLAF in human RS4-11 cells assessed as degradation of PCLAF protein at 100 nM measured after 24 hr of compound washout by Western blotting analysis; assay type: cell-based
Target sequence in this assay (Q96SW2 whole entry, looked up, one chain of several): as above

RS4-11 [16] = assay: Induction of apoptosis in human RS4-11 cells incubated for 48 hrs Annexin V-FITC/PI staining based flow cytometry analysis; assay type: functional, cell-based
RS4-11 [17] = assay: Induction of apoptosis in human RS4-11 cells assessed as upregulation of Bax level at 10 to 100 nM by Western blotting analysis; assay type: functional, cell-based; details: dose 10-100 nM
[18] = molecular target: T2, Protein cereblon/PCNA-associated factor; assay: PROTAC activity at CRBN/PCLAF in human RS4-11 cells assessed as maximal degradation of PCLAF protein by Western blotting analysis relative to control; assay type: cell-based
Target sequence in this assay (Q96SW2 whole entry, looked up, one chain of several): as above

[19] = molecular target: T2, Protein cereblon/PCNA-associated factor; assay: PROTAC activity at CRBN/PCLAF in human RS4-11 cells assessed as degradation of PCLAF protein at 10 to 100 nM by Western blotting analysis; assay type: cell-based; details: dose 10-100 nM
[20] = Toxicity in NOD/SCID mouse xenografted with human RS4-11 cells assessed as adverse effect at 5 mg/kg,iv qd administration for 5 consecutive days; assay type: organism-based; details: in vivo
[21] = molecular target: T2, Protein cereblon/PCNA-associated factor; assay: PROTAC activity at CRBN/PCLAF in human RS4-11 cells assessed as degradation of PCLAF protein at 100 nM incubated for 12 hrs in presence of SM1044 by Western blotting analysis; assay type: cell-based
RS4-11 [22] = assay: Antitumor activity against human RS4-11 cells xenografted in NOD/SCID mouse assessed as increase in survival day at IV administration for 5 consecutive days; assay type: functional
[23] = molecular target: T2, Protein cereblon/PCNA-associated factor; assay: PROTAC activity at CRBN/PCLAF in human RS4-11 cells assessed as maximal degradation of PCLAF protein at 24 hr by Western blotting analysis; assay type: cell-based
[24] = molecular target: T2, Protein cereblon/PCNA-associated factor; assay: PROTAC activity at CRBN/PCLAF in human RS4-11 cells assessed as degradation of PCLAF protein at 40 nM incubated for 40 mins by DARTS analysis; assay type: cell-based
[25] = molecular target: T2, Protein cereblon/PCNA-associated factor; assay: PROTAC activity at CRBN/PCLAF in human RS4-11 cells assessed as degradation of PCLAF protein by Western blotting analysis; assay type: cell-based
Target sequence in this assay (Q96SW2 whole entry, one chain of several): as the sequence (Q96SW2 whole entry, looked up, one chain of several) above

RS4-11 [26] = assay: Induction of apoptosis in human RS4-11 cells assessed as downregulation of Bcl-2 level at 10 to 100 nM by Western blotting analysis; assay type: functional, cell-based; details: dose 10-100 nM
[27] = molecular target: T2, Protein cereblon/PCNA-associated factor; assay: PROTAC activity at CRBN/PCLAF in human RS4-11 cells assessed as degradation of PCLAF protein at 4 hr by Western blotting analysis; assay type: cell-based
[28] = molecular target: T2, Protein cereblon/PCNA-associated factor; assay: PROTAC activity at CRBN/PCLAF in human RS4-11 cells assessed as upregulation of p21 protein at 10 to 100 nM by Western blotting analysis; assay type: cell-based; details: dose 10-100 nM
[29] = Toxicity in NOD/SCID mouse xenografted with human RS4-11 cells assessed as pathological change in liver at 25 mg/kg,iv qd administration for 5 consecutive days by hematoxylin and eosin staining based microscopic analysis; assay type: organism-based; details: in vivo
RS4-11 [30] = assay: Antitumor activity against human RS4-11 cells xenografted in NOD/SCID mouse assessed as tumor growth inhibition at 1 mg/kg,iv administration for 5 consecutive days; assay type: functional, organism-based
RS4-11 [31] = assay: Antitumor activity against human RS4-11 cells xenografted in NOD/SCID mouse assessed as tumor growth inhibition at 5 mg/kg,iv administration for 5 consecutive days; assay type: functional, organism-based
RS4-11 [32] = assay: Induction of cell cycle arrest in human RS4-11 cells assessed as accumulation of cells at G1 phase incubated for 48 hrs by propidium iodide staining based flow cytometry analysis; assay type: functional
[33] = Toxicity in NOD/SCID mouse xenografted with human RS4-11 cells assessed as change in body weight at 1 mg/kg,iv qd administration for 5 consecutive days; assay type: organism-based; details: in vivo
[34] = Toxicity in NOD/SCID mouse xenografted with human RS4-11 cells assessed as maximum tolerated dose at IV administration for 5 consecutive days; details: in vivo

## C[C@H]1[C@@H](OCCNCCO[C@H]2O[C@@H]3O[C@]4(C)CC[C@H]5[C@H](C)CC[C@@H]([C@H]2C)[C@@]35OO4)O[C@@H]2O[C@]3(C)CC[C@H]4[C@H](C)CC[C@@H]1[C@@]24OO3
RS4-11 [1]
  pIC50: 6.19
RPMI-8226
  pIC50: < 6.00
PCNA-associated factor
  pKd: 3.74
U-266
  pIC50: < 6.00

## C[C@@H]1CCC2[C@@H](C)[C@@H](OCCN(CCO[C@H]3O[C@@H]4O[C@@]5(C)CCC6[C@H](C)CCC([C@H]3C)[C@]64OO5)C(=O)CCCCCCNc3cccc4c3C(=O)N(C3CCC(=O)NC3=O)C4=O)O[C@@H]3O[C@@]4(C)CCC1[C@@]23OO4 (stereo partly drawn)
RS4-11 [1]
  pIC50: 7.10
RPMI-8226
  pIC50: 6.98
U-266
  pIC50: 6.58

## C[C@@H]1CCC2[C@@H](C)[C@@H](OCCN(CCO[C@H]3O[C@@H]4O[C@@]5(C)CCC6[C@H](C)CCC([C@H]3C)[C@]64OO5)C(=O)CCCCCNc3cccc4c3C(=O)N(C3CCC(=O)NC3=O)C4=O)O[C@@H]3O[C@@]4(C)CCC1[C@@]23OO4 (stereo partly drawn)
RS4-11 [1]
  pIC50: 7.01
RPMI-8226
  pIC50: 6.83
U-266
  pIC50: 6.27

## C[C@@H]1CCC2[C@@H](C)[C@@H](OCCN(CCO[C@H]3O[C@@H]4O[C@@]5(C)CCC6[C@H](C)CCC([C@H]3C)[C@]64OO5)C(=O)CCCCCCCNc3cccc4c3C(=O)N(C3CCC(=O)NC3=O)C4=O)O[C@@H]3O[C@@]4(C)CCC1[C@@]23OO4 (stereo partly drawn)
RS4-11 [2]
  Activity: Active
RS4-11 [1]
  pIC50: 7.30
[3]
  Activity: Non-Toxic
[4]
  Activity: Non-Toxic
[5]
  Activity: Active
[6]
  Activity: inactive
[7]
  Activity: Non-Toxic
RS4-11 [8]
  Activity: Active
RPMI-8226
  pIC50: 6.63
[9]
  Activity: Active
[10]
  Activity: Non-Toxic
[11]
  Activity: Active
[12]
  bioavailability: 24%
[13]
  Activity: inactive
[14]
  Activity: Non-Toxic
[15]
  Activity: inactive
RS4-11 [16]
  Activity: Dose-Dependent Effect
RS4-11 [17]
  Activity: Active
[18]
  Emax: 95%
PCNA-associated factor
  pKd: 5.21
[19]
  Activity: Active
[20]
  Activity: Non-Toxic
[21]
  Activity: inactive
U-266
  pIC50: 6.46
RS4-11 [22]
  Activity: Dose-Dependent Effect
[23]
  Activity: Active
[24]
  Activity: inactive
[25]
  DC50: 0.0549 µM
RS4-11 [26]
  Activity: Active
[27]
  Activity: Active
[28]
  Activity: Active
[29]
  Activity: Non-Toxic
RS4-11 [30]
  Activity: Active
RS4-11 [31]
  Activity: Active
RS4-11 [32]
  Activity: Dose-Dependent Effect
[33]
  Activity: Non-Toxic
[34]
  MTD at 5 days: 25 mg/kg

## C[C@@H]1CCC2[C@@H](C)[C@@H](OCCN(CCO[C@H]3O[C@@H]4O[C@@]5(C)CCC6[C@H](C)CCC([C@H]3C)[C@]64OO5)C(=O)CCCCNc3cccc4c3C(=O)N(C3CCC(=O)NC3=O)C4=O)O[C@@H]3O[C@@]4(C)CCC1[C@@]23OO4 (stereo partly drawn)
RS4-11 [1]
  pIC50: 6.61
RPMI-8226
  pIC50: < 6.00
U-266
  pIC50: < 6.00

## C[C@@H]1CCC2[C@@H](C)[C@@H](OCCN(CCO[C@H]3O[C@@H]4O[C@@]5(C)CCC6[C@H](C)CCC([C@H]3C)[C@]64OO5)C(=O)CCCCCCCCNc3cccc4c3C(=O)N(C3CCC(=O)NC3=O)C4=O)O[C@@H]3O[C@@]4(C)CCC1[C@@]23OO4 (stereo partly drawn)
RS4-11 [1]
  pIC50: 7.14
RPMI-8226
  pIC50: 6.49
U-266
  pIC50: 6.39
